These results are taken from patent US7083933B1, “Methods for identification of modulators of OSGPR116 activity” (Prosidion Limited, priority 2003, dated 2006).

Assay [1] concerns the target T1, OSGPR116 (Homo sapiens, UniProt Q8TDV5).
T1 sequence (Q8TDV5 1-335): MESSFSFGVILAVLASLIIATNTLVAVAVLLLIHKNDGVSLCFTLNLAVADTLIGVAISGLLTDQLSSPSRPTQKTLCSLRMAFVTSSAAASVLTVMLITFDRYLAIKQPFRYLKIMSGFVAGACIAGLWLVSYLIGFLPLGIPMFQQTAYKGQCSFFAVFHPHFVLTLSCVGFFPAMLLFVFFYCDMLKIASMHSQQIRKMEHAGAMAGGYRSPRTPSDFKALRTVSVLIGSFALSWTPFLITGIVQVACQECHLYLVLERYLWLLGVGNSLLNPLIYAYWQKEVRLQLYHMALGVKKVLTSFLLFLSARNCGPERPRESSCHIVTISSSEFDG
The experiment in a line: Cre-SEAP assay in HEK-293-Galpha16 cells transfected with OSGPR116 or empty vector. It is filed as cell-based. Further details: expressed in transfected cells; host or cells: HEK-293-Galpha16 cells stably expressing cre-SEAP, transient transfection with lipofectamine. Conditions: OSGPR116 and empty vector transfected cells, 7h, FIG. 12. How it is done:
HEK-293—Galpha16 cells stably expressing the cre-SEAP (secreted alkaline phosphatase) reporter construct, and transiently transfected with either the OSGPR116 vector or empty vector control, were grown to between ˜0.5×10^6 and 1×10^7 cells/dish and seeded at 4×10^4 cells/well on poly-D-lysine coated clear-bottom 96-well tissue culture plates. The cells were left to adhere to the plates in media for 24h at 37° C. The media was aspirated and the cells arrested by serum starvation for a further 24h in 200 ul of colorless DMEM.
After serum arrest, the starvation media was aspirated and 90 ul fresh colorless DMEM containing 0.1% BSA was added. 10 ul of 10× compound (or DMSO/H20 control) was added and the plates incubated at 37° C. for 7h. Conditioned media (12.5 ul) was then transferred to a 96 well white flat-bottom plate. Next, 37.5 μl of 1× Tropix Dilution Buffer was added to the transferred culture media. 50 μl of Tropix Assay Buffer was also added. The plate was then incubated at room temperature for 5 minutes. Finally, 50 μl Tropix Reaction Buffer Diluent containing a 1:20 dilution of the CSPD Chemiluminescent Substrate was added. The plate was incubated at room temperature for 60 minutes and luminescence measured.

Assay [2] deals with T1, OSGPR116. The experiment in a line: Yeast cell-based Fus1p-LacZ reporter assay, human OSGPR116. Further details: expressed in transfected cells; host or cells: engineered yeast (GPA1 and Ste3 deleted, G-alpha chimera, Fus1p-LacZ reporters). Conditions: human isoform, FIG. 9a; Galpha-q5 yeast, 4h incubation. An excerpt: (§1) The yeast cell-based reporter assays have previously been described in the literature (e.g. see Miret J. J., et. al. (2002) J. Biol. Chem. 277:6881–6887; Campbell R. M., et. al. (1999) Bioorg Med. Chem. Lett. 9:2413–2418; King K., et. al. (1990) Science. 250:121–123); WO 99/14344; WO 00/12704; and U.S. Pat. No. 6,100,042). Briefly, yeast cells have been engineered such that the endogenous yeast G-alpha (GPA1) has been deleted and replaced with G-protein chimeras constructed using multiple techniques. Additionally the endogenous yeast alpha-cell GPCR, Ste3 has been deleted to allow for a […] expression of a mammalian GPCR of choice. In the yeast, elements of the pheromone signaling transduction pathway, which are conserved in eukaryotic cells (for example, the mitogen-activated protein kinase pathway), drive the expression of Fus1. By placing β-galactosidase (LacZ) under the control of the Fus1 promoter (Fus1p), a system has been developed whereby receptor activation leads to an enzymatic read-out. Different yeast strains (e.g. FIG. 10) denote the presence of different G-alpha chimeras (see “yeast reporter assays” in Results section below for definitions).
(§2) Yeast cells are transformed by an adaptation of the Lithium acetate method described by Agatep et.al. (Agatep, R., et. al. (1998) Transformation of Saccharomyces cerevisiae by the lithium acetate/single-stranded carrier DNA/polyethylene glycol (LiAc/ss-DNA/PEG) protocol. Technical Tips Online, Trends Journals, Elsevier). Briefly, yeast cells are grown overnight on yeast tryptone plates (YT). Carrier single-stranded DNA (10 μg), 2 μg of each of two Fus1p-LacZ reporter plasmids (one with URA selection marker and one with TRP), 2 μg of OSGPR116 in yeast expression vector (2μ origin of replication) and a lithium acetate/polyethylene glycol/TE buffer is pipetted into an Epindorf tube. The yeast expression plasmid containing the receptor/no receptor control has a LEU marker. Yeast cells are inoculated into this mixture and the reaction proceeds at 30° C. for 60 minutes. The yeast cells are then heat-shocked at 42° C. for 15 minutes. The cells are then washed and spread on selection plates. The selection plates are synthetic defined yeast media minus LEU, URA and TRP (SD-LUT). After incubating at 30° C. for 2–3 days, colonies that grow on the selection plates are then tested in the LacZ assay.
(§3) In order to perform fluorometric enzyme assays for β-galactosidase, yeast cells were grown overnight in liquid SD-LUT media to an unsaturated concentration (i.e. the cells are still dividing and have not yet reached stationary phase). They are diluted in fresh media to an optimal assay concentration and 90 μL of yeast cells were added to 96-well black polystyrene plates (Costar). Compounds, dissolved in ethanol and diluted in a 1% BSA solution to 10× concentration, were added to the plates and the yeast are placed at 30° C. for 4h. After 4h, the substrate for the β-galactosidase is added to each well. The substrate may yield a fluorescent or calorimetric read-out upon the activity of the β-galactosidase. In these experiments, Fluorescein di (β-D-galactopyranoside) was used (FDG), a substrate for the enzyme that releases fluorescein, allowing a fluorometric read-out. 20 μL of 500 uM FDG was used. After incubation of the cells with the substrate for 30–60 mins, 20 μL of 1M sodium carbonate is added to terminate the reaction and enhance the fluorescent signal. The plates were then read in a fluorometer at 485/535 nm. As an alternate read-out system, the yeast are also engineered with a Fus1p-HIS gene which means that activation of the receptor can also be measured through the growth of the yeast in a […] deficient media.
On the technique in general: Reporter assays use an easily measured gene product as a stand-in for the process of interest.

Assay [3] deals with T1, OSGPR116. Further details: expressed in transfected cells; host or cells: yeast strains 13397, 13393, 15070, 18043, 20202, 10151 with different G-alpha chimeras. The conditions noted are these: as described in earlier U.S. patents; cited from earlier work.
Assay [4] addresses T2, mouse homolog of OSGPR116 (Mus musculus, UniProt Q7TQP3).
T2 construct: expressed in transfected cells; host or cells: engineered yeast (GPA1 and Ste3 deleted, G-alpha chimera, Fus1p-LacZ reporters)
T2 sequence (Q7TQP3 1-335): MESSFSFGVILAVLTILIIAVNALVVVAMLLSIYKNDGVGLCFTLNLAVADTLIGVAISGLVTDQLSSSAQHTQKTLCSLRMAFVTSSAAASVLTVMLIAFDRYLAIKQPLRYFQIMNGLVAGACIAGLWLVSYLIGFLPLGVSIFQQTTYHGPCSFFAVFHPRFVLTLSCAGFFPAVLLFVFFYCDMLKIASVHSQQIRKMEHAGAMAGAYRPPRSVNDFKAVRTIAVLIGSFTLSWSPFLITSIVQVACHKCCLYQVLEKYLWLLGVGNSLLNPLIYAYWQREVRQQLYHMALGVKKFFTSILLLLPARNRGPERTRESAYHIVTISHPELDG
Nature of the assay: Yeast cell-based Fus1p-LacZ reporter assay, mouse OSGPR116. Conditions: mouse isoform, FIG. 9b; Galpha-q5 yeast, 4h incubation.
Text: as §1, §2, §3

The subject of assay [5] is vector transformed yeast cells. The experiment in a line: Yeast reporter assay, vector transformed (no receptor) control yeast. It is filed as cell-based. The conditions noted are these: yeast without OSGPR116 expression, FIGS. 9a, 9b.
Text: as §1, §2, §3

SMILES strings stand for the structures.

In the case of `Nc1ncnc2c1ncn2[C@@H]1O[C@H](COP(=O)(O)OP(=O)(O)OP(=O)(O)O)[C@@H](O)[C@H]1O` [ATP], the “luminescence (cre-SEAP, cAMP response element driven secreted alkaline phosphatase)” value (“luminescence” below) in assay [1] is “no effect”.
Turning to `CC1=C(/C=C/C(C)=C/C=C/C(C)=C/C(=O)O)C(C)(C)CCC1` [ATRA, all-trans-retinoic acid], in assay [2], the “effect on fluorescence (β-galactosidase activity) in yeast transformed with OSGPR116 receptor” value (from here on “effect on fluorescence”) is “no effect”. In addition, the “luminescence” value in assay [1] is on record as “no effect”; in assay [1] (listed as all-trans retinoic acid (ATRA)) it was “Lack of effect”. The “production of cyclic AMP in host cells expressing recombinant receptor” value in assay [3] is listed as “stimulate the production of cyclic AMP”.
As to `CCCCCCC(C)(C)c1ccc([C@@H]2C[C@H](O)CC[C@H]2CCCO)c(O)c1` [CP55940], the “effect on fluorescence” value in assay [2] is given as “no effect”.
For `CCCC(C)(C)c1ccc2c(c1)OC(C)(C)[C@@H]1CC=C(C)C[C@@H]21` [JWH-133], in assay [2], the “effect on fluorescence” value is listed as “no effect”.
Regarding `CCNC(=O)[C@H]1O[C@@H](n2cnc3c(N)ncnc32)[C@H](O)[C@@H]1O` [NECA], in assay [1], the “luminescence” value was “clear increase”.
For the compound `Cc1c(C(=O)c2cccc3ccccc23)c2cccc3c2n1[C@H](CN1CCOCC1)CO3` [WIN55212-2], the “effect on fluorescence” value in assay [2] is listed as “no effect”.
Take `CCCCC/C=C\C/C=C\C/C=C\C/C=C\CCCC(=O)NCCO` [anandamide]: the “effect on fluorescence” value in assay [4] and in assay [2] was “increase in fluorescence” in each case. The “increase in fluorescence in vector transformed cells” value (“increase” for short) in assay [5] is on record as “not”.
Regarding `CC/C=C\C/C=C\C/C=C\C/C=C\C/C=C\C/C=C\CCC(=O)NCCO` [docosahexaenoic acid ethanolamide], in assay [2], the “effect on fluorescence” value was “no effect”.
Take `CC/C=C\C/C=C\C/C=C\CCCCCCCC(=O)NCCO` [linolenoyl ethanolamide]: the “effect on fluorescence” value in assay [4] and in assay [2] was “increase in fluorescence” throughout. Also, the “increase” value in assay [5] is given as “not”.
As for `CCCCC/C=C\C/C=C\C/C=C\C/C=C\CCCC(=O)N[C@H](C)CO` [methanandamide], the “effect on fluorescence” value in assay [2] is recorded as “no effect”.
In the case of `CCCCCCCC/C=C\CCCCCCCC(N)=O` [oleamide], the “effect on fluorescence” value in assay [4] and in assay [2] was “increase in fluorescence” throughout. Besides, the “increase” value in assay [5] is reported as “not”.
In the case of `CCCCCCCCCCCCCCCC(=O)NCCO` [palmitoyl ethanolamide], the “effect on fluorescence” value in assay [4] and in assay [2] was “increase in fluorescence” throughout. Further, the “increase” value in assay [5] is “not”.
Take `CCCCCCCCCCCCCCCCCC(=O)NCCO` [stearoyl ethanolamide]: the “effect on fluorescence” value in assay [4] and in assay [2] was “increase in fluorescence” throughout. Also, in assay [5], the “increase” value was “not”.
